From patent US9862748B2, “Peptide compounds and methods of production and use thereof” (priority 2012, dated 2018)
Like-named read-outs stand apart in the source and are kept apart here. Square brackets hold non-standard residues; d marks the D form. Peptide text beside a SMILES is read from it. AEEA = NCCOCCOCC(=O)O

Experiments:
[1] = system: P. aeruginosa (ATCC® 27853™); test: Mouse model of Pseudomonas keratitis (CFU/eye); type: in vivo, Pseudomonas aeruginosa in C57/BL mice; settings: 10 and 20 mg/ml groups together
Description: A circular wound (2 mm) was created on the mouse cornea by removing the epithelium and infecting the wound with 10^5 CFU of P. aeruginosa (ATCC® 27853™ (American Type Culture Collection, Manassas, Va.)). Infected wounds were treated with saline or saline containing indicated concentrations of peptide every 15 minutes for 2 hours, then every 30 minutes for 3 hours on the first day. Infected wounds were treated twice on the second day and once on the third day. Mice were killed at 48 hours post-infection, and the colony forming units per eye (CFU/eye) were quantified. The means are plotted and are representative of 5 to 9 mice per group. Mann Whitney test was performed for each group as compared to the saline control group.
For FIGS. 15-17, in vivo bactericidal activity of the peptides was also investigated using the standard Pseudomonas keratitis model in the mouse eye (FIGS. 15-17). Peptides 120-146QR-5RMP (SEQ ID NO: 32), 120-146WH (SEQ ID NO: 31), and 120-146WR (SEQ ID NO: 30) were applied topically at doses of 2, 5, 10, and 20 mg/ml to the wounded cornea that had been infected with 10^5 CFU of Pseudomonas aeruginosa. The efficacies of the peptides were compared to treatment with the vehicle control. Mice were euthanized at 48 hours post infection, and the CFU/eye were quantified.

[2] = system: Pseudomonas LPS; test: LPS binding, Limulus Amebocyte Lysate (LAL) assay
Description: (§1) The well-characterized response of RAW264.7 macrophage cells was used to produce tumor necrosis-factor-alpha (TNF-α) in response to LPS to determine whether the peptides could dampen the release of this cytokine. […] Importantly, pre-treatment (3 hours prior to LPS addition) as well as post-treatment of the RAW264.7 cells (3 hours post LPS addition) with peptide dampened the cytokine release. […] The finding that the novel peptides bind and neutralize the effect of Pseudomonas LPS is of critical importance since this ensures that the novel therapeutic peptide compounds described herein will not only kill the bacteria, but will also neutralize the LPS endotoxin released by the bacteria which plays such an important role in the rapid progression of sepsis.
(§2) BCC01-5RMP (SEQ ID NO: 21), BCC02-5RMP (SEQ ID NO: 22), and BCC03-5RMP (SEQ ID NO: 23) were tested for their ability to bind lipopolysaccharide (LPS) using the limulus amebocyte lysate method (LAL). […] There was no statistical difference in their ability to bind LPS using the LAL technique. The ability of the peptides to neutralize LPS was assessed by determining their ability to attenuate the release of tumor necrosis factor-alpha (TNF-α) from LPS-stimulated RAW264.7 cells (a mouse macrophage cell line). […] No significant differences were observed between the three peptides to neutralize LPS as measured by cytokine release.

[3] = system: Salmonella typhimurium; test: In vitro bactericidal assay; type: cell-based
Description: (§3) In vitro bactericidal activity: The three peptide compounds BCC01-5RMP (SEQ ID NO: 21), BCC02-5RMP (SEQ ID NO: 22), and BCC03-5RMP (SEQ ID NO: 23) were assayed for in vitro bactericidal activity against Pseudomonas aeruginosa, Escherichia coli, Salmonella typhimurium, and Acinetobacter baumannii. The starting inoculum for all experiments was 1×10^6 colony forming units (CFU)/ml. The CFU remaining at the end of 60 to 180 minute incubation was determined, and the data plotted as a log reduction in CFU/ml.

[4] = system: Pseudomonas aeruginosa ATCC® 27853™; type: cell-based; set-up: Effects of Peptide Compounds on Pseudomonas aeruginosa ATCC ® 27853 ™: unit not given here; settings: Table 6
Description: as §3
(§4) For FIGS. 10-13, in vitro bactericidal assays were performed using a starting inoculum of 1×10^6 CFU/ml of the bacterial suspension. The CFU remaining at the end of the 60-180 minute incubation was determined, and the data was plotted as log reduction in CFU/ml.
(§5) In particular, each of the test peptides (CAP37 peptides 120-146WR, 120-146WH, and 95-122 (SEQ ID NOs: 30, 31, and 26, respectively)) was used at 25, 12.5, 6.25, and 3.12 μM. Gentamicin was used at 4 μg/ml. 1×10^6/ml Acinetobacter baumannii ATCC® BAA-747™ or Pseudomonas aeruginosa ATCC® 27853™ (American Type Culture Collection, Manassas, Va.) were incubated with the peptides, negative buffer control (tryptone saline), and positive control gentamicin at pH 5.5 or 7.2. A 60 minute incubation was used for Acinetobacter baumannii ATCC® BAA-747™, while a 180 minute incubation was used for Pseudomonas aeruginosa ATCC® 27853™. 50 μl aliquots were plated out on agar plates and incubated overnight. Colony forming units were counted after overnight incubation and CFU/ml calculated.
For FIG. 14, 1×10^6/ml Pseudomonas aeruginosa ATCC® 27853™ were incubated with each of the test peptides (CAP37 peptides 120-146WR, 120-146WH, 120-146QR, 120-146QH, 120-146QR-5RMP, and 120-146QH-5RMP (SEQ ID NOs: 30, 31, 28, 29, 32, and 33, respectively)) at 150, 75, and 37.5 μg/ml, or negative buffer control (tryptone saline), for 180 minutes at pH 5.5. 50 μl aliquots were plated out on agar plates and incubated overnight. Colony forming units were counted after overnight incubation and CFU/ml calculated.

[5] = system: Acinetobacter baumannii ATCC® BAA-747™; type: cell-based; settings: starting inoculum 1×10^6 CFU/ml; 60 to 180 minute incubation
Description: as §3, §4, §5

[6] = system: E. coli ATCC® strain 25922™; type: cell-based, Escherichia coli; set-up: unit not given here; settings: Peptide Conc 1.56 μg/ml; Table 6
Description: as §3

[7] = system: RAW264.7 cells; test: LPS neutralization: TNF-α release from LPS-stimulated RAW264.7 cells; type: cell-based, mouse
Description: as §1, §2

## CC(C)C[C@H](NC(=O)[C@H](CCCNC(=N)N)NC(=O)CNC(=O)CNC(=O)[C@H](CO)NC(=O)[C@H](CCCNC(=N)N)NC(=O)[C@H](CCC(N)=O)NC(=O)[C@H](CO)NC(=O)CNC(=O)[C@H](Cc1c[nH]c2ccccc12)NC(=O)CNC(=O)[C@H](C)NC(=O)[C@@H](NC(=O)[C@H](CCC(N)=O)NC(=O)[C@H](CS)NC(=O)[C@H](CCCNC(=N)N)NC(=O)[C@@H](NC(=O)CNC(=O)[C@H](CCCNC(=N)N)NC(=O)[C@H](CCCNC(=N)N)NC(=O)[C@H](CCCNC(=N)N)NC(=O)[C@H](CCCNC(=N)N)NC(=O)COCCOCCNC(=O)COCCOCCN)[C@@H](C)O)C(C)C)C(=O)N[C@@H](CO)C(=O)N[C@@H](CCCNC(=N)N)C(=O)N[C@@H](Cc1ccccc1)C(=O)N1CCC[C@H]1C(=O)N[C@@H](CCCNC(=N)N)C(=O)N[C@@H](Cc1ccccc1)C(=O)N[C@H](C(=O)N[C@@H](CC(N)=O)C(=O)N[C@H](C(=O)N[C@@H](CCCNC(=N)N)C(=O)O)C(C)C)C(C)C [120-146QR-5RMP] (H-[AEEA][AEEA]RRRRGTRCQVAGWGSQRSGGRLSRFPRFVNVR-OH; N-terminus and C-terminus assumed)
[1]
  mice with no viable bacteria in the eye after treatment: Six of the 10 mice

## CC[C@H](C)[C@H](NC(=O)[C@H](CC(C)C)NC(=O)[C@H](C)NC(=O)CNC(=O)CNC(=O)[C@H](CS)NC(=O)[C@H](Cc1ccccc1)NC(=O)[C@H](Cc1c[nH]cn1)NC(=O)[C@H](CCCNC(=N)N)NC(=O)CNC(=O)[C@H](CCC(N)=O)NC(=O)[C@H](CC(N)=O)NC(=O)[C@H](CCCNC(=N)N)NC(=O)[C@H](CCCNC(=N)N)NC(=O)[C@H](CCCNC(=N)N)NC(=O)[C@H](CCCNC(=N)N)NC(=O)COCCOCCNC(=O)COCCOCCN)C(=O)N[C@@H](Cc1c[nH]cn1)C(=O)N[C@@H](C)C(=O)N[C@@H](CCCNC(=N)N)C(=O)N[C@@H](Cc1ccccc1)C(=O)N[C@H](C(=O)N[C@@H](CCSC)C(=O)N[C@H](C(=O)N[C@@H](C)C(=O)N[C@@H](C)C(=O)N[C@@H](CO)C(=O)N[C@@H](CO)C(=O)N[C@@H](Cc1ccccc1)C(=O)N[C@@H](CCC(N)=O)C(=O)N[C@@H](CCCNC(=N)N)C(=O)O)[C@@H](C)O)C(C)C [BCC03-5RMP] (H-[AEEA][AEEA]RRRRNQGRHFCGGALIHARFVMTAASSFQR-OH; N-terminus assumed)
[2]
  binding of Pseudomonas LPS (LAL): bound Pseudomonas LPS
[3]
  activity against Salmonella typhimurium: strong, but lesser activity
[4]; Peptide Conc 25 μg/ml
  Effects of Peptide Compounds on Pseudomonas aeruginosa ATCC ® 27853 ™: 100.0
[4]; Peptide Conc 50 μg/ml
  Effects of Peptide Compounds on Pseudomonas aeruginosa ATCC ® 27853 ™: 100.0
[4]; Peptide Conc 100 μg/ml
  Effects of Peptide Compounds on Pseudomonas aeruginosa ATCC ® 27853 ™: 100.0
[4]; Peptide Conc 200 μg/ml
  Effects of Peptide Compounds on Pseudomonas aeruginosa ATCC ® 27853 ™: 100.0
[5]
  activity against Acinetobacter baumannii: most active
[6]
  Effects of Peptide Compounds on Escherichia coli ATCC ® 25922 ™: 23.0
[7]
  release of TNF-α in response to Pseudomonas LPS: attenuate the release of TNF-α
